Reference: patent US20260138976A1 (Hoffmann-La Roche Inc., priority 2022, published 2026)
Blank lines part the entries; values can stand above or below the compound they belong to.

Legend:
DGK α kinase = molecular target: T1, DGK α kinase (Homo sapiens, UniProt P23743); assay: DGKalpha kinase ADP Glo assay run by Reaction Biology Corp.; type: biochemical; conditions: 2 nM kinase, 50 µM ATP, 500 μM DLG, 10-dose duplicate
T1 construct: purchased Reaction Biology Corp. (contract assay service)
Protocol: DGK α and ζ kinases use ATP to phosphorylate the substrate 1,2-dilauroyl-sn-glycerol (DLG). ATP is converted to ADP as a result of this enzymatic reaction.
After the kinase reaction, an ATP-depletion reagent is added to terminate the kinase reaction and deplete any remaining ATP, leaving only ADP. Second, a detection reagent is added to simultaneously convert ADP to ATP and allow the newly synthesized ATP to be converted to light using a coupled luciferase/luciferin reaction.
DGK α and ζ kinase ADP Glo assays were ran by Reaction Biology Corp., 1 Great Valley Parkway, Suite 2, Malvern, 19355, PA, USA. Information provided by the service provider are the following: DGK α and ζ kinases were used at 2 nM final concentration. Reactions were carried out at 50 µM ATP. 500 μM of the substrate DLG (Dilauroyl-sn-glycerol) was used.

primary human T-cells = assay: Proliferation assay (5 days, CellTiter-Glo, CD3-stimulated T-cells); type: cell-based; conditions: for Emax proliferation (% activation): CD3 condition, normalised to DMSO (neutral) and 20 μM reference compound A1 = 100%; for EC50: Homo sapiens, T-cell, 120 h, CD3-stimulated primary human T-cells, 5 days, CellTiter-Glo, fitted sigmoidal curve, read-out: Tcell Proliferation CD3 EC50
In short: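 Expanded primary human T-cells, 100 k cells/well, were stimulated with plate-coated CD3 antibody (donor-titrated) and given compound in a 5 or 6 pt dose response from 20 μM or 10 μM final top, 0.2% DMSO final. ATP was read by CellTiter-Glo after 5 days. EC50 and Emax were reported as % of 20 μM reference compound A1.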

T1 sequence (P23743 whole entry): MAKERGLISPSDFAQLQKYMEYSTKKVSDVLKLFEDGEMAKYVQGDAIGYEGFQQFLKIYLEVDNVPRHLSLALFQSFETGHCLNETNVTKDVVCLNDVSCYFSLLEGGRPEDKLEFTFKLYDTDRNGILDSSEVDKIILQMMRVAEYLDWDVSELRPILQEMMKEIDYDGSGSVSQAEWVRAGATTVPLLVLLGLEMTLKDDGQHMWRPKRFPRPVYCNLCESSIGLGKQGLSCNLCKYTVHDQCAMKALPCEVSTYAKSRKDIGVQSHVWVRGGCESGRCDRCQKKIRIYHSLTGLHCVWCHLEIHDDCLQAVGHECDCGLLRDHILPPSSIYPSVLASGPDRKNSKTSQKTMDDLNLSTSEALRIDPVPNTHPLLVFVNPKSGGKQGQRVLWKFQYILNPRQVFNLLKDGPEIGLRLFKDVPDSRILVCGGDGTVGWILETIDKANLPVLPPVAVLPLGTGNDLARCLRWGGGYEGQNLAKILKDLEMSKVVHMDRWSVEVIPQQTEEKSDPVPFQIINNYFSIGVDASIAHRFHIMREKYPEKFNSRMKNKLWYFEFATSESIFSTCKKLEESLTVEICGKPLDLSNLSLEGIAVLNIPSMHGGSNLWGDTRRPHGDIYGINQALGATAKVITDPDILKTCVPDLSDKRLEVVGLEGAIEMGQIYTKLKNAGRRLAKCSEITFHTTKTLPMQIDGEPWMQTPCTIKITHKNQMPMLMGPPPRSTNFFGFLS

IC50 (DGK α kinase): 0.282 µM
SMILES: CC(C)(C)c1nnc(-c2ccc3c(c2)N(Cc2ccc(-c4nnc(C(F)(F)F)o4)cc2)C(=O)[C@@H](N)CS3(=O)=O)o1 [Example 24, (3R)-3-amino-7-(5-tert-butyl-1,3,4-oxadiazol-2-yl)-1,1-dioxo-5-[[4-[5-(trifluoromethyl)-1,3,4-oxadiazol-2-yl]phenyl]methyl]-2,3-dihydro-1λ^6,5-benzothiazepin-4-one]
Emax proliferation (% activation) (primary human T-cells): 142 % activation
EC50 (primary human T-cells): 0.775 µM

IC50 (DGK α kinase): 0.173 µM
SMILES: CC(N)(c1nnc(-c2ccc3c(c2)N(Cc2ccc(-c4noc(C(F)(F)F)n4)cc2)C(=O)[C@@H](N)CS3(=O)=O)o1)C(F)(F)F (stereo partly drawn) [Example 32, (3R)-3-amino-7-[5-(1-amino-2,2,2-trifluoro-1-methyl-ethyl)-1,3,4-oxadiazol-2-yl]-1,1-dioxo-5-[[4-[5-(trifluoromethyl)-1,2,4-oxadiazol-3-yl]phenyl]methyl]-2,3-dihydro-1λ^6,5-benzothiazepin-4-one]
Emax proliferation (% activation) (primary human T-cells): 153 % activation
EC50 (primary human T-cells): 0.468 µM

IC50 (DGK α kinase): 0.0585 µM
SMILES: N[C@H]1CS(=O)(=O)c2ccc(-c3nnc(C4(C5CC5)CCCO4)o3)cc2N(Cc2ccc(-c3noc(C(F)(F)F)n3)cc2)C1=O (stereo partly drawn) [Example 36, (3R)-3-amino-7-[5-(2-cyclopropyl-tetrahydrofuran-2-yl)-1,3,4-oxadiazol-2-yl]-1,1-dioxo-5-[[4-[5-(trifluoromethyl)-1,2,4-oxadiazol-3-yl]phenyl]methyl]-2,3-dihydro-1λ^6,5-benzothiazepin-4-one]
Emax proliferation (% activation) (primary human T-cells): 108 % activation
EC50 (primary human T-cells): 0.0917 µM

IC50 (DGK α kinase): 0.0946 µM
SMILES: N[C@H]1CS(=O)(=O)c2ccc(-c3nnc(C4(N)CCCCC4)o3)cc2N(Cc2ccc(-c3noc(C(F)(F)F)n3)cc2)C1=O [Example 39, (3R)-3-amino-7-[5-(1-aminocyclohexyl)-1,3,4-oxadiazol-2-yl]-1,1-dioxo-5-[[4-[5-(trifluoromethyl)-1,2,4-oxadiazol-3-yl]phenyl]methyl]-2,3-dihydro-1λ^6,5-benzothiazepin-4-one]
Emax proliferation (% activation) (primary human T-cells): 91 % activation
EC50 (primary human T-cells): 0.181 µM

IC50 (DGK α kinase): 0.0111 µM
SMILES: CC(C)(C#N)c1nnc(-c2cc3c(cc2F)S(=O)(=O)C[C@H](N)C(=O)N3Cc2ccc(-c3ccc(C(F)(F)F)cn3)cc2)o1 [Example 88, 2-[5-[(3R)-3-amino-8-fluoro-1,1,4-trioxo-5-[[4-[5-(trifluoromethyl)-2-pyridyl]phenyl]methyl]-2,3-dihydro-1λ^6,5-benzothiazepin-7-yl]-1,3,4-oxadiazol-2-yl]-2-methyl-propanenitrile]
Emax proliferation (% activation) (primary human T-cells): 106 % activation
EC50 (primary human T-cells): 0.0451 µM

IC50 (DGK α kinase): 0.0447 µM
SMILES: CC(O)(c1nnc(-c2ccc3c(c2)N(Cc2ccc(-c4noc(C(F)(F)F)n4)cc2)C(=O)[C@@H](N)CS3(=O)=O)o1)C(F)(F)F (stereo partly drawn) [Example 96, (3R)-3-amino-1,1-dioxo-7-[5-(2,2,2-trifluoro-1-hydroxy-1-methyl-ethyl)-1,3,4-oxadiazol-2-yl]-5-[[4-[5-(trifluoromethyl)-1,2,4-oxadiazol-3-yl]phenyl]methyl]-2,3-dihydro-1λ^6,5-benzothiazepin-4-one]
Emax proliferation (% activation) (primary human T-cells): 103 % activation
EC50 (primary human T-cells): 0.175 µM

SMILES: COC(=O)N1CC2CC(c3nnc(-c4ccc5c(c4)N(Cc4ccc(-c6noc(C(F)(F)F)n6)cc4)C(=O)[C@@H](N)CS5(=O)=O)o3)(C2)C1 [Example 158, methyl 1-[5-[(3R)-3-amino-1,1,4-trioxo-5-[[4-[5-(trifluoromethyl)-1,2,4-oxadiazol-3-yl]phenyl]methyl]-2,3-dihydro-1λ^6,5-benzothiazepin-7-yl]-1,3,4-oxadiazol-2-yl]-3-azabicyclo[3.1.1]heptane-3-carboxylate]
Emax proliferation (% activation) (primary human T-cells): 150 % activation
EC50 (primary human T-cells): 0.304 µM

SMILES: N[C@H]1CS(=O)(=O)c2ccc(-c3nnc(N4CCC(F)(F)CC4)o3)cc2N(Cc2ccc(-c3ccc(C(F)(F)F)cn3)cc2)C1=O [Example 160]
Emax proliferation (% activation) (primary human T-cells): 150 % activation
EC50 (primary human T-cells): 1.3 µM

SMILES: N[C@H]1CS(=O)(=O)c2ccc(-c3nnc(N4CCC(F)(F)CC4)o3)cc2N(Cc2ccc(-n3ccc(C(F)(F)F)n3)cc2)C1=O [Example 162, (3R)-3-amino-7-[5-(4,4-difluoro-1-piperidyl)-1,3,4-oxadiazol-2-yl]-1,1-dioxo-5-[[4-[3-(trifluoromethyl)pyrazol-1-yl]phenyl]methyl]-2,3-dihydro-1λ^6,5-benzothiazepin-4-one]
Emax proliferation (% activation) (primary human T-cells): 186 % activation
EC50 (primary human T-cells): 0.563 µM

SMILES: CC(C)(c1nnc(-c2ccc3c(c2)N(Cc2ccc(-c4ccc(OC(F)(F)F)cn4)cc2)C(=O)[C@@H](N)CS3(=O)=O)o1)C(F)(F)F [Example 165, (3R)-3-amino-1,1-dioxo-7-[5-(2,2,2-trifluoro-1,1-dimethyl-ethyl)-1,3,4-oxadiazol-2-yl]-5-[[4-[5-(trifluoromethoxy)-2-pyridyl]phenyl]methyl]-2,3-dihydro-1λ^6,5-benzothiazepin-4-one]
Emax proliferation (% activation) (primary human T-cells): 139 % activation
EC50 (primary human T-cells): 0.153 µM

SMILES: N[C@H]1CS(=O)(=O)c2ccc(-c3nnc(C(F)C(F)(F)F)o3)cc2N(Cc2ccc(-c3noc(C4CC4)n3)cc2)C1=O (stereo partly drawn) [Example 168, (3R)-3-amino-5-[[4-(5-cyclopropyl-1,2,4-oxadiazol-3-yl)phenyl]methyl]-1,1-dioxo-7-[5-(1,2,2,2-tetrafluoroethyl)-1,3,4-oxadiazol-2-yl]-2,3-dihydro-1λ^6,5-benzothiazepin-4-one]
Emax proliferation (% activation) (primary human T-cells): 62 % activation
EC50 (primary human T-cells): 2.62 µM

SMILES: CC(O)(c1nnc(-c2ccc3c(c2)N(Cc2ccc(-c4noc(C5CC5)n4)cc2)C(=O)[C@@H](N)CS3(=O)=O)o1)C(F)(F)F (stereo partly drawn) [Example 170]
Emax proliferation (% activation) (primary human T-cells): 89 % activation
EC50 (primary human T-cells): 1.01 µM

SMILES: N[C@H]1CS(=O)(=O)c2ccc(-c3nnc(C(N)(C4CC4)C(F)(F)F)o3)cc2N(Cc2ccc(-c3noc(C4CC4)n3)cc2)C1=O (stereo partly drawn) [Example 171]
Emax proliferation (% activation) (primary human T-cells): 109 % activation
EC50 (primary human T-cells): 1.52 µM

SMILES: N#CC1(c2nnc(-c3ccc4c(c3)N(Cc3ccc(-c5ccc(OC(F)(F)F)cn5)cc3)C(=O)[C@@H](N)CS4(=O)=O)o2)CCC1 [Example 172, 1-[5-[(3R)-3-amino-1,1,4-trioxo-5-[[4-[5-(trifluoromethoxy)-2-pyridyl]phenyl]methyl]-2,3-dihydro-1λ^6,5-benzothiazepin-7-yl]-1,3,4-oxadiazol-2-yl]cyclobutanecarbonitrile]
Emax proliferation (% activation) (primary human T-cells): 101 % activation
EC50 (primary human T-cells): 0.303 µM

SMILES: CC(C)(CC#N)c1nnc(-c2ccc3c(c2)N(Cc2ccc(-c4ccc(OC(F)(F)F)cn4)cc2)C(=O)[C@@H](N)CS3(=O)=O)o1 [Example 175, 3-[5-[(3R)-3-amino-1,1,4-trioxo-5-[[4-[5-(trifluoromethoxy)-2-pyridyl]phenyl]methyl]-2,3-dihydro-1λ^6,5-benzothiazepin-7-yl]-1,3,4-oxadiazol-2-yl]-3-methyl-butanenitrile]
Emax proliferation (% activation) (primary human T-cells): 105 % activation
EC50 (primary human T-cells): 0.121 µM
